≈ marks a conversion by molar mass, not a printed value. Where two headings read alike, the source gives them in different places.
What was measured:
[1] = tested on: Methicillin-Resistant Staphylococcus aureus (MRSA), CMRSA-1B; assay: MIC by sequential macrodilution (tube) broth method against MRSA; assay type: cell-based; parameters: key: (+): Positive visual bacterial growth; (−): Negative visual bacterial growth; settings: 37° C. overnight
Description: (Nat. Committee for Clinical Laboratory Standards. Document M7-A5 2000, 20; 1-25). Bacterial suspensions containing 5×10^5 colony-forming units (CFU) were incubated with serial two-fold dilutions of each drug at 37° C. overnight, and growth was monitored visually. The range of MIC values among the triaryl-imidazole derivatives was 12.5-50 μg/ml.

MRSA-1B387 = assay: In vivo inhibition of MRSA, acute infection in immunosuppressed CB17-SCID mice; parameters: species or system Staphylococcus aureus; settings: 5×10^6 MRSA-1B387 in 5% mucin, 50 mg/kg I.P. immediately and 3 hours after inoculation
Description: Triaryl-imidazole compounds were tested in vivo for antibacterial activity against MRSA in a model of acute infection using immunosuppressed mice. Suspensions of 400 μL containing 5×10^6 MRSA-1B387 bacteria in 5% mucin were injected into groups of 5-10 female, 8-14 weeks CB17-SCID mice. Under these conditions bacterial infection produced 80-100% lethality in less than 48 hours. Each group of inoculated mice was treated with 50 mg/kg of the respective compound intraperitoneally (I.P.) immediately and 3 hours after bacterial inoculation.

[2] = tested on: multi-drug resistant Staphylococcus aureus (CMRSA-1B); assay: Bactericidal effect against MRSA (CFU plating on TSA); assay type: cell-based; settings: overnight with compound, plated on TSA, CFU count (FIG. 1)
Description: Serial dilutions of liquid cultures were incubated with the compounds at 37° C. overnight and then plated on Tryptic Soy Agar (TSA) plates. After incubation for 17 hours at 37° C., the number of live bacteria was calculated from the number of colonies grown per milliliter of culture and expressed as colony-forming units (CFU).

[3] = tested on: Candida albicans (ATCC 24433); assay: In vitro anti-fungal activity, microdilution against Candida albicans; assay type: cell-based; settings: for MIC: ATCC24433, C. albicans ATCC 24433
Description: A microdilution method was used to determine the anti-fungal activity of different test compounds against Candida albicans (ATCC 24433) at 25 μg/ml. RPMI-1640 broth is recommended as the medium of choice for susceptibility testing of C. albicans (NCCLS, 2002; Document M27-A2) and was used in this study. The broth was buffered to pH 7.0 and then sterilized using a 250 ml vacuum driven disposable 0.45 um filtration system.
C. albicans was sub-cultured from a −80° C. stock onto Sabouraud dextrose agar and incubated for 24-48 hrs at 37° C. The fungi inoculum was prepared by picking five colonies of ˜1 mm in diameter from 24-48 hr old cultures. The colonies were then suspended in 5 ml of sterile normal saline (8.5 g/L NaCl; 0.85% saline) diluted 1:50 and further diluted 1:20 with medium to obtain two-fold inoculum (1-5×10^3 cfu/ml). […] The microtitre plates were then sealed in plastic bags and incubated at 35° C. for 24-48 hrs in an ambient air incubator with shaking at 250 RPM.
Inhibition of visible growth of C. albicans in the microtitre plate wells was assessed by the unaided eye and confirmed by OD600 reading. […] The MIC values of compounds with significant activity are also included.

[4] = tested on: S. aureus, MRSA 1A-218, 1A-318, 1B-374, 1B-315, 1B-185, 1B387 and MSSA ATCC-6538, ATCC-29213; assay: MIC by standard microdilution method against S. aureus (MRSA and MSSA strains); assay type: cell-based; settings: Staphylococcus aureus
Description: A standard microdilution method (NCCLS, 2000; Document M7-A5) was used to determine the minimum inhibitory concentrations (MICs) against S. aureus, methicillin-resistant strains (MRSA); 1A-218, 1A-318, 1B-374, 1B-315, 1B-185, 1B387 (Simor et al. 1999 Can Commun Dis Rep; 25:105-108) and methicillin-sensitive strains (MSSA); ATCC-6538 and ATCC-29213. The MICs of some compounds were also determined against other Gram-positive bacteria: Enterococcus faecium (ATCC 51559), Enterococcus faecalis (ATCC-51299, ATCC-29212) and Staphylococcus epidermidis (ATCC-35983).
Mueller-Hinton broth (MHB) is recommended as the medium of choice for susceptibility testing of commonly isolated, rapidly growing aerobic organisms such as the Gram-positive bacteria included in this study. A “cation-adjusted Mueller-Hinton broth” (Ca-MHB) was prepared by first preparing standard MHB from a dehydrated base as recommended by the manufacturer.
Single colonies from fresh agar plates of the different bacterial cultures were sub-cultured overnight in 3 ml of Tryptic soy broth (TSB) at 37° C. with shaking at 250 RPM. After 18-20 hours of incubation, the absorbance at λ=600 nm (OD600) were determined for each culture and adjusted to a final OD600=0.1 (4.2×10^7 cfu/ml). Bacterial suspensions were then diluted 1:200 in sterile Ca-MHB for the in vitro susceptibility test, with each well of the microtitre plate containing approximately 2×10^5 cfu/ml.
Stock solutions of the different test compounds were prepared at concentrations of 1,280 μg/ml, 640 μg/ml, or 320 μg/ml in 50% DMSO (dimethyl sulfoxide). Serial two-fold dilutions were then prepared in 50% DMSO (the working concentrations were 1:10 of the stock concentrations in 100 μl culture suspensions). The filled microtitre plates were sealed in plastic bags and incubated at 35° C. for 24 hr in an ambient air incubator with shaking at 250 RPM. MIC values were determined as the lowest concentration where complete inhibition of the visible bacterial growth was observed by the unaided eye and confirmed by the measurement of the optical density (OD600).

MRSA 1B-387 = assay: In vivo anti-bacterial activity, ICR mice inoculated I.P. with MRSA, oral treatment; settings: Staphylococcus aureus
Description: For in vivo studies, groups of 5-10 female ICR mice (6-7 weeks) were inoculated intraperitonially with 3-8×10^7 CFU MRSA 1B-387 per mouse in 400 μl of 5% mucin. The test compounds at concentrations of 50 or 100 mg/kg were administered orally immediately after the bacterial inoculation and again 3 hours later. The selected dosages were administered twice daily throughout the experiment. The efficacy of the treatment was evaluated by comparison of mortality between the experimental and control groups (Table 5).

[5] = ATCC24433, C. albicans ATCC 24433, compound 25 μg/ml, 24 h, read-out: Inhibition (%) after 24 h
[6] = ATCC24433, C. albicans ATCC 24433, compound 25 μg/ml, 48 h, read-out: Inhibition (%) after 48 h
[7] = against all 8 strains of S. aureus tested except where indicated, microdilution, Ca-MHB, 35° C., 24 hr, read-out: MIC
[8] = ATCC24433, 24 h, read-out: Inhibition (%) after 24 h
[9] = ATCC24433, 48 h, read-out: Inhibition (%) after 48 h

Row | Compound | inhibition at 25 µg/mL [3, 5] [%] | inhibition at 25 µg/mL [3, 6] [%] | MIC [4, 7] [µg/mL] | responders at 100 mg/kg (MRSA 1B-387) [%] | responders at 100 mg/kg (MRSA 1B-387; read-out: Survival %) [%] | further results
1 | O=C(O)c1ccc(-c2nc(-c3ccc(Sc4ccccc4)cc3)c(-c3ccccc3)[nH]2)cc1 [Compound 1] |  |  |  |  |  | visual bacterial growth ([1]; Conc. 3.12 μg/ml): +; visual bacterial growth ([1]; Conc. 6.25 μg/ml): +; visual bacterial growth ([1]; Conc. 12.50 μg/ml): −; visual bacterial growth ([1]; Conc. 25.00 μg/ml): −; visual bacterial growth ([1]; Conc. 50.00 μg/ml): −; visual bacterial growth ([1]; Conc. 100.00 μg/ml): −; Survival (%) (MRSA-1B387): 40%; bactericidal or bacteriostatic effect at the corresponding MIC [2]: bactericidal effect
2 | CC(=O)n1c(-c2c(C)n(C(C)=O)c3ccccc23)nc(-c2ccccc2)c1-c1ccccc1 [Compound 5] | 0 | 0 | > 128 | 20 | 20 | 
3 | Brc1ccc2[nH]cc(-c3nc(-c4ccccc4)c(-c4ccccc4)[nH]3)c2c1 [Compound 6] | 0 | 0 | 4 (≈ 9.65 µM) | 40 | 40 | 
4 | Fc1ccc(-c2nc(-c3c[nH]c4ccc(Br)cc34)[nH]c2-c2ccc(F)cc2)cc1 [Compound 8] | 100 | 100 | 2 (≈ 4.44 µM) | 20 | 20 | MIC [3]: 8 µg/mL (≈ 17.8 µM)
5 | COc1ccc(-c2nc(-c3c[nH]c4ccc(Br)cc34)[nH]c2-c2ccc(OC)cc2)cc1 [Compound 10] | 0 | 0 | 4 (≈ 8.43 µM) | 100 | 100 | 
6 | Cc1[nH]c2ccccc2c1-c1nc(-c2ccc(N(C)C)cc2)c(-c2ccc(N(C)C)cc2)[nH]1 [Compound 11] | 27 | 28 | 8 (≈ 18.4 µM) | 0 | 0 | 
7 | Clc1ccc(-c2[nH]c(-c3c[nH]c4ccc(Br)cc34)nc2-c2ccccc2)cc1 [Compound 32] | 93 | 100 | 8 (≈ 17.8 µM) | 40 | 40 | MIC [3]: 8 µg/mL (≈ 17.8 µM)
8 | Cc1[nH]c2ccccc2c1-c1nc(-c2ccccc2)c(-c2ccc([N+](=O)[O-])cc2)[nH]1 [Compound 33] | 0 | 0 | 4 to 8 (≈ 10.1 to 20.3 µM) | 0 | 0 | 
9 | O=[N+]([O-])c1ccc(-c2[nH]c(-c3c[nH]c4ccc(Br)cc34)nc2-c2ccccc2)cc1 [Compound 34] | 0 | 0 | > 128 | 100 | 100 | 
10 | Cc1[nH]c2ccccc2c1-c1nc(-c2ccccc2)c(-c2ccc(F)cc2)[nH]1 [Compound 35] | 100 | 73 | 8 (≈ 21.8 µM) | 4 | 40 | 
11 | Fc1ccc(-c2[nH]c(-c3c[nH]c4ccc(Br)cc34)nc2-c2ccccc2)cc1 [Compound 36] | 86 | 97 | 2 (≈ 4.63 µM) | 80 | 80 | MIC [3]: 16 µg/mL (≈ 37 µM)
12 | Cc1[nH]c2ccccc2c1-c1nc(-c2ccccc2)c(-c2ccc(Br)cc2)[nH]1 [Compound 42] | 77 | 43 | 4 (≈ 9.34 µM) | 0 | 0 | 
13 | Brc1ccc(-c2[nH]c(-c3c[nH]c4ccc(Br)cc34)nc2-c2ccccc2)cc1 [Compound 43] | 87 | 59 | 4 (≈ 8.11 µM) | 80 | 80 | MIC [3]: 8 µg/mL (≈ 16.2 µM)
14 | Cc1[nH]c2ccccc2c1-c1nc2c3ccccc3c3ccccc3c2[nH]1 [Compound 44] |  |  |  | 60 | 60 | inhibition at 25 µg/mL [3, 8]: 0%; inhibition at 25 µg/mL [3, 9]: 0%; MIC ([4]; 24 h): 8 µg/mL (≈ 23 µM)
15 | c1ccc2c(-c3nc4c5ccccc5c5ccccc5c4[nH]3)c[nH]c2c1 [Compound 46] |  |  |  | 40 | 40 | inhibition at 25 µg/mL [3, 8]: 33%; inhibition at 25 µg/mL [3, 9]: 0%; MIC ([4]; 24 h): 4 µg/mL (≈ 12 µM)
16 | COC(=O)c1ccc2c(-c3nc(-c4ccccc4)c(-c4ccccc4)[nH]3)c[nH]c2c1 [Compound 83] | 0 | 0 | > 128 | 20 | 20 | 
